Test results as given in patent US8324176B2, “Pyrazole derivatives, medicinal composition containing the same, medicinal use thereof, and intermediate for production thereof” (Kissei Pharmaceutical Co., Ltd., priority 2002, dated 2012).

Legend:
diabetic rats = assay: Assay for inhibitory effects on blood glucose level increase in rats (liquid meal tolerance test); assay type: in vivo, rat; settings: test compound 1 mg/kg orally, liquid meal 17.25 kcal/kg, mean±S.E.; for Plasma glucose concentration 0.5 h: 0.5 hour after the drug administration; for Plasma glucose concentration 1 h: 1 hour after the drug administration
Protocol: Assay for Inhibitory Effects on Blood Glucose Level Increase in Rats
1) Preparation of Diabetic Rat Model
Male wistar rats (Japan Charles River), aged 8 weeks old, were injected nicotinamide (230 mg/kg) intraperitoneally. Fifteen minutes after injection, they were injected streptozotocin (85 mg/kg) intravenously from tail vain under anesthesia with ether. After a week, rats were fasted overnight and then glucose tolerance test (2 g/kg) was done.
2) Liquid Meal Tolerance Test
After overnight fasted, the diabetic rats were orally administered a test compound (1 mg/kg), which was dissolved in distilled water or 0.5% aqueous carboxymethylcellulose solution, in the drug-treating group, or distilled water or 0.5% aqueous carboxymethylcellulose solution alone in a control group. Immediately after the compound administration, 17.25 kcal/kg of liquid meal (No. 038, Control diet, assorted with dextrin and maltose; Oriental Yeast Co., Ltd.) was loaded orally. The blood was collected from tail artery immediately before and after administration with the time course, and treated with heparin immediately. The blood was centrifuged, and the plasma was collected to quantify the plasma glucose concentration by glucose oxidase method. The values in the Table are presented as the mean±S.E.

human SGLT1 = molecular target: T1, human SGLT1 (Homo sapiens, UniProt P13866); assay: Assay for inhibitory effects on human SGLT1 activity (uptake of methyl-α-D-glucopyranoside in CS1-5-11D cells); assay type: cell-based; settings: CHO-K1 cells stably expressing human SGLT1 (CS1-5-11D); 1 mM α-MG uptake, 37° C., 1 hour
T1 construct: expressed in transfected cells
T1 sequence (P13866 1-664): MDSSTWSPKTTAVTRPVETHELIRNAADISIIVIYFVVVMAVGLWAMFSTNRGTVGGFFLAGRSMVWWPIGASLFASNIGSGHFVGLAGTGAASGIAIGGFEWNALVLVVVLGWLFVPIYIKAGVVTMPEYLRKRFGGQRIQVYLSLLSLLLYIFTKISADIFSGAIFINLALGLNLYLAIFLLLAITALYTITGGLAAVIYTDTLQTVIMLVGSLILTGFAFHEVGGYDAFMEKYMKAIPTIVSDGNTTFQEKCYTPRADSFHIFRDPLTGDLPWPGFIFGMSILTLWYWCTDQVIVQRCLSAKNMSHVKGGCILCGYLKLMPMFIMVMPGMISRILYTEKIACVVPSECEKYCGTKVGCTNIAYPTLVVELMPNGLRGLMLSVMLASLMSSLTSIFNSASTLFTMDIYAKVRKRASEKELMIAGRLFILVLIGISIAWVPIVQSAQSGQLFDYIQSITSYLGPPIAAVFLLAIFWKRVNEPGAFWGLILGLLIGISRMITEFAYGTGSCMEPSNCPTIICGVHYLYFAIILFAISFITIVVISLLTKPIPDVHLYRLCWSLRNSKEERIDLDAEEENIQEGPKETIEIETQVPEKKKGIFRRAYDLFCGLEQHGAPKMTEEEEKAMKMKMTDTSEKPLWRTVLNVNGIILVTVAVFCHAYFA
Protocol: Assay for Inhibitory Effects on Human SGLT1 Activity
1) Cloning and Construction of the Vector Expressing Human SGLT1
The cDNA library was prepared for PCR amplification by reverse transcription from total RNA deprived from human small intestine (Ori gene) using oligo-dT as a primer.
2) Establishment of Cell Line Stably Expressing Human SGLT1
The expression vector of human SGLT1 was digested by Sca I into a linear DNA. The linear DNA was transfected into CHO-K1 cells by means of lipofection (Effectene Transfection Reagent: QIAGEN). Neomycin resistant cell lines were selected by culture in the medium containing G418 (1 mg/mL, LIFE TECHNOLOGIES), and then the activity against the uptake of methyl-α-D-glucopyranoside was measured by the method described below. […] CS1-5-11D cells were cultured in the presence of G418 at 200 μg/mL.
3) Measurement of the Inhibitory Activity Against the Uptake of Methyl-α-D-glucopyranoside (α-MG)
CS1-5-11D cells were seeded into a 96-well culture plate at a density of 3×10^4 cells/well and cultured for 2 days, and were used in the uptake assay. A mixture of non-labeled (Sigma) and ^14C-labeled α-MG (Amersham Pharmcia Biotec) was added to the uptake buffer (pH 7.4: containing 140 mM sodium chloride, 2 mM potassium chloride, 1 mM calcium chloride, 1 mM magnesium chloride, 10 mM 2-[4-(2-hydroxyethyl)-1-piperazinyl]ethane sulfonic acid, and 5 mM tris(hydroxymethyl)aminomethane) at the final concentration of 1 mM. A test compound was dissolved in dimethyl sulfoxide, and then appropriately diluted with distilled water. The test compound solution was added to the uptake buffer containing 1 mM α-MG, and designated as a measurement buffer. For the control group, the measurement buffer without any test compound was prepared. For measuring the basal uptake, a basal uptake measurement buffer which contains 140 mM chorine chloride instead of sodium chloride was prepared. After removing the culture medium of CS1-5-11D cells, 180 μL of the pre-treatment buffer (the basal uptake buffer without α-MG) was added to each well and incubated at 37° C. for 10 minutes. After repeating the same treatment, the pre-treatment buffer was removed. To each well was added 75 μL of the measurement buffer or the basal uptake buffer was added and incubated at 37° C. for 1 hour. After removing the measurement buffer, cells were washed twice with 180 μL per well of the washing buffer (the basal uptake buffer containing 10 mM non-labeled α-MG). The cells were solubilized by 75 μL per well of 0.2 mol/L sodium hydroxide. The cell lysates were transferred into PicoPlates (Packard), and then added 150 μL of MicroScint-40 (Packard) and mixed. Radioactivity was measured by means of micro-scintillation counter TopCount (Packard). One hundred was set to the difference between the uptake in the control group and the basal uptake, and the uptake of methyl α-D-glucopyranoside a teach drug concentration were calculated.

Male ICR mice = assay: Acute toxicity test; assay type: in vivo; settings: n=5, oral dose of 1 g/kg, observed for 24 hours
Protocol: Male ICR mice (CLEA Japan, Inc.; 32-37 g, n=5), aged 6 weeks old, were fasted for 4 hours.

Structure (SMILES)	IC50 (human SGLT1)	Plasma glucose concentration 0.5 h (diabetic rats)	Plasma glucose concentration 1 h (diabetic rats)	Number of death (Male ICR mice)	Plasma glucose concentration 0 h (diabetic rats; pretreatment (0 h))
CC(C)c1[nH]nc(O[C@@H]2O[C@H](CO)[C@@H](O)[C@H](O)[C@H]2O)c1Cc1ccc(OCCCN)cc1 [Example 6, 4-{[4-(3-Aminopropoxy)phenyl]methyl}-3-(β-D-glucopyranosyloxy)-5-isopropyl-1H-pyrazole]	304 nM	126 ± 12 mg/dL	140 ± 13 mg/dL		
CC(C)c1[nH]nc(O[C@@H]2O[C@H](CO)[C@@H](O)[C@H](O)[C@H]2O)c1Cc1ccc(OCCCNS(C)(=O)=O)cc1 [Example 10, 3-(β-D-Glucopyranosyloxy)-5-isopropyl-4-({4-[3-(methanesulfonylamino)propoxy]phenyl}methyl)-1H-pyrazole]	169 nM	145 ± 5 mg/dL	164 ± 6 mg/dL		
CC(C)c1[nH]nc(O[C@@H]2O[C@H](CO)[C@@H](O)[C@H](O)[C@H]2O)c1Cc1ccc(OCCCNC(=O)CN)cc1 [Example 13, 4-({4-[3-(2-Aminoacetylamino)propoxy]phenyl}methyl)-3-(β-D-glucopyranosyloxy)-5-isopropyl-1H-pyrazole]	267 nM	127 ± 7 mg/dL	135 ± 7 mg/dL		
CC(C)c1[nH]nc(O[C@@H]2O[C@H](CO)[C@@H](O)[C@H](O)[C@H]2O)c1Cc1ccc(OCCCNC(=O)NC(C)(CO)CO)cc1 [Example 21, 3-(β-D-Glucopyranosyloxy)-4-{[4-(3-{3-[2-hydroxy-1-(hydroxymethyl)-1-(methyl)ethyl]ureido}propoxy)phenyl]-methyl}-5-isopropyl-1H-pyrazole]	127 nM	211 ± 22 mg/dL	242 ± 35 mg/dL		
CC(C)c1[nH]nc(O[C@@H]2O[C@H](CO)[C@@H](O)[C@H](O)[C@H]2O)c1Cc1ccc(OCCCNC(=O)NC(C)(C)CO)cc1 [Example 24, 3-(β-D-Glucopyranosyloxy)-4-{[4-(3-{3-[2-hydroxy-1,1-di(methyl)ethyl]ureido}propoxy)phenyl]methyl}-5-isopropyl-1H-pyrazole]	61 nM	210 ± 33 mg/dL	228 ± 50 mg/dL		
Cc1cc(OCCCN2CCN(CCO)CC2)ccc1Cc1c(O[C@@H]2O[C@H](CO)[C@@H](O)[C@H](O)[C@H]2O)n[nH]c1C(C)C [Example 35, 3-(β-D-Glucopyranosyloxy)-4-[(4-{3-[4-(2-hydroxyethyl)piperazin-1-yl]propoxy}-2-methylphenyl)methyl]-5-isopropyl-1H-pyrazole]	160 nM	188 ± 16 mg/dL	229 ± 25 mg/dL		
CC(C)c1[nH]nc(O[C@@H]2O[C@H](CO)[C@@H](O)[C@H](O)[C@H]2O)c1Cc1ccc(OCCCNC(=NC#N)NCCO)cc1 [Example 37, 4-[(4-{3-[2-Cyano-3-(2-hydroxyethyl)guanidino]propoxy}phenyl)methyl]-3-(β-D-glucopyranosyloxy)-5-isopropyl-1H-pyrazole]	158 nM	231 ± 21 mg/dL	286 ± 31 mg/dL		
Cc1cc(OCCCNCCC(N)=O)ccc1Cc1c(O[C@@H]2O[C@H](CO)[C@@H](O)[C@H](O)[C@H]2O)n[nH]c1C(C)C [Example 52, 4-[(4-{3-[2-(Carbamoyl)ethylamino]propoxy}-2-methylphenyl)methyl]-3-(β-D-glucopyranosyloxy)-5-isopropyl-1H-pyrazole]		163 ± 5 mg/dL	176 ± 10 mg/dL	0/5	

The next lines start with results.

IC50 (human SGLT1)	Structure (SMILES)	Plasma glucose concentration 0.5 h (diabetic rats)	Plasma glucose concentration 1 h (diabetic rats)	Number of death (Male ICR mice)	Plasma glucose concentration 0 h (diabetic rats; pretreatment (0 h))
68 nM	Cc1cc(OCCCNCC(N)=O)ccc1Cc1c(O[C@@H]2O[C@H](CO)[C@@H](O)[C@H](O)[C@H]2O)n[nH]c1C(C)C [Example 45]	169 ± 18 mg/dL	182 ± 27 mg/dL		
98 nM	Cc1cc(OCCCNC(=N)N)ccc1Cc1c(O[C@@H]2O[C@H](CO)[C@@H](O)[C@H](O)[C@H]2O)n[nH]c1C(C)C [Example 55, 3-(β-D-Glucopyranosyloxy)-4-{[4-(3-guanidinopropoxy)-2-methylphenyl]methyl}-5-isopropyl-1H-pyrazole]	200 ± 16 mg/dL	211 ± 18 mg/dL		
38 nM	Cc1cc(OCCNC(=N)N)ccc1Cc1c(O[C@@H]2O[C@H](CO)[C@@H](O)[C@H](O)[C@H]2O)n[nH]c1C(C)C [Example 56, 3-(β-D-Glucopyranosyloxy)-4-{[4-(2-guanidinoethoxy)-2-methylphenyl]methyl}-5-isopropyl-1H-pyrazole]	146 ± 7 mg/dL	165 ± 17 mg/dL		
71 nM	Cc1cc(OCCCNC(CO)CO)ccc1Cc1c(O[C@@H]2O[C@H](CO)[C@@H](O)[C@H](O)[C@H]2O)n[nH]c1C(C)C [Example 59, 3-(β-D-Glucopyranosyloxy)-4-[(4-(3-[2-hydroxy-1-(hydroxymethyl)ethylamino]propoxy)-2-methylphenyl)methyl]-5-isopropyl-1H-pyrazole]	143 ± 4 mg/dL	154 ± 13 mg/dL		
178 nM	CC(C)c1[nH]nc(O[C@@H]2O[C@H](CO)[C@@H](O)[C@H](O)[C@H]2O)c1Cc1ccc(OCCCNCc2cccnc2)cc1 [Example 64, 3-(β-D-Glucopyranosyloxy)-5-isopropyl-4-({4-[3-(3-pyridyl-methylamino)propoxy]phenyl}methyl)-1H-pyrazole]	141 ± 12 mg/dL	148 ± 22 mg/dL		116 ± 2 mg/dL
